Activity and MIC data for 2 molecules are collected here from ChEMBL document CHEMBL1145663, “Studies on iridoid-related compounds, II. The structure and antimicrobial activity of aglucones of galioside and gardenoside” (1983).

≈ marks a conversion by molar mass, not a printed value. Calls of active or inactive are those of the source.

For one test, the system named is Klebsiella pneumoniae. The test is described as follows: Antimicrobial activity against Klebsiella pneumoniae after 20 hrs by agar dilution method. Format: functional. For orientation: Agar dilution tests growth on a series of plates holding different concentrations.
For the next test, the system named is Staphylococcus aureus. Nature of the test: Antimicrobial activity against Staphylococcus aureus after 20 hrs by agar dilution method. Type of test: functional.

As for `COC(=O)C1=CO[C@@H](O[C@@H]2O[C@H](CO)[C@@H](O)[C@H](O)[C@H]2O)[C@H]2[C@@H]1C=C[C@]2(O)CO`, the outcome in the test on Klebsiella pneumoniae and with Staphylococcus aureus was Active.

`COC(=O)C1=CO[C@@H](O)[C@H]2[C@@H]1C=C[C@]2(O)CO`: the MIC (in general, the smallest concentration in the dilution series that meets the test's criterion for growth inhibition) against Klebsiella pneumoniae worked out at 1000 µg/mL (≈ 4130 µM); in the test with Staphylococcus aureus, 125 µg/mL (≈ 516 µM).
